Results on eleven molecules are retold here after ChEMBL document CHEMBL3425423, “Hydroxy tricyclic 1,5-naphthyridinone oxabicyclooctane-linked novel bacterial topoisomerase inhibitors as broad-spectrum antibacterial agents-SAR of RHS moiety (Part-3)” (Bioorg Med Chem Lett, 2015).

What all share (assay type): functional
For one test, the system named is Pseudomonas aeruginosa. Briefly: Antibacterial activity against Pseudomonas aeruginosa PAO1. The settings on record: Pseudomonas aeruginosa, PAO1; read-out: MIC.
The next test concerns Escherichia coli. In words: Antibacterial activity against Escherichia coli ATCC 25922. The settings on record: Escherichia coli, ATCC 25922; read-out: MIC.
In the next test the test system is Enterococcus faecalis. Briefly: Antibacterial activity against Enterococcus faecalis ATCC 29212. Conditions: Enterococcus faecalis, ATCC 29212; read-out: MIC.
The subject of the next test is Acinetobacter baumannii. Briefly: Antibacterial activity against Acinetobacter baumannii IID876. Conditions: Acinetobacter baumannii, IID876; read-out: MIC.
The test system of test [1] is Staphylococcus aureus. In words: Antibacterial activity against Staphylococcus aureus Smith. The settings on record: Staphylococcus aureus, Smith; read-out: MIC.
The test system of another test is Enterococcus faecium. Briefly: Antibacterial activity against VanA-type vancomycin-resistant Enterococcus faecium A2373. Conditions: Enterococcus faecium, A2373; read-out: MIC.
A further test deals with Streptococcus pneumoniae. In words: Antibacterial activity against Streptococcus pneumoniae IID554. The settings on record: Streptococcus pneumoniae, IID554; read-out: MIC.
The subject of test [2] is Staphylococcus aureus. In words: Ratio of MIC for quinolone-resistant Staphylococcus aureus MS5935 to MIC for quinolone-sensitive Staphylococcus aureus.
The test system of the next test is Haemophilus influenzae. Briefly: Antibacterial activity against Haemophilus influenzae ATCC 49247. Conditions: Haemophilus influenzae, ATCC 49247; read-out: MIC.
The next test has as its system Moraxella catarrhalis. In words: Antibacterial activity against Moraxella catarrhalis ATCC 25238. The settings on record: Moraxella catarrhalis, ATCC 25238; read-out: MIC.

Values after ≈ are worked out from the molar mass of the structure shown.

Take `O=c1ccc2ncc(F)c3c2n1C[C@@]3(O)CC12CCC(NCc3cc(-c4cccs4)on3)(CC1)CO2`: the MIC with Pseudomonas aeruginosa worked out at 16 µg/mL (≈ 31.5 µM); in the test with Escherichia coli, 16 µg/mL (≈ 31.5 µM); in the test with Enterococcus faecalis it was 2 µg/mL (≈ 3.93 µM); in the test on Acinetobacter baumannii, 16 µg/mL (≈ 31.5 µM); with Staphylococcus aureus [1], 0.25 µg/mL (≈ 0.492 µM); with Enterococcus faecium, 16 µg/mL (≈ 31.5 µM). For the same molecule, the MIC in the test with Streptococcus pneumoniae was found to be 0.5 µg/mL (≈ 0.983 µM). In the test on Staphylococcus aureus [2], the Ratio is under 4.

`O=c1ccc2ncc(F)c3c2n1C[C@@]3(O)CC12CCC(NCc3cc4c(cn3)OCCC4)(CC1)CO2`: the MIC is 32 µg/mL (≈ 65 µM) in the test on Pseudomonas aeruginosa; 4 µg/mL (≈ 8.12 µM) in the test on Haemophilus influenzae; 16 µg/mL (≈ 32.5 µM) in the test on Escherichia coli; 4 µg/mL (≈ 8.12 µM) with Enterococcus faecalis; 4 µg/mL (≈ 8.12 µM) in the test with Acinetobacter baumannii; 0.13 µg/mL (≈ 0.264 µM) in the test with Staphylococcus aureus [1]. Besides, the values for the MIC in the test on Enterococcus faecium and in the test on Streptococcus pneumoniae were 16 µg/mL (≈ 32.5 µM) and 0.5 µg/mL (≈ 1.02 µM), respectively.

As to `CN1CCOc2nc(CNC34CCC(C[C@]5(O)Cn6c(=O)ccc7ncc(F)c5c76)(CC3)OC4)ccc21`, the MIC was found to be 16 µg/mL (≈ 31.5 µM) in the test with Pseudomonas aeruginosa; 16 µg/mL (≈ 31.5 µM) with Escherichia coli; 16 µg/mL (≈ 31.5 µM) with Enterococcus faecalis; 16 µg/mL (≈ 31.5 µM) with Acinetobacter baumannii; 2 µg/mL (≈ 3.94 µM) in the test with Staphylococcus aureus [1]; 16 µg/mL (≈ 31.5 µM) in the test on Enterococcus faecium. In addition, the MIC in the test on Streptococcus pneumoniae turned out to be 4 µg/mL (≈ 7.88 µM). For the same molecule, the Ratio in the test on Staphylococcus aureus [2] is under 4.

For `O=c1ccc2ncc(F)c3c2n1C[C@@]3(O)CC12CCC(NCCCc3cc(F)ccc3F)(CC1)CO2`, the MIC turned out to be 32 µg/mL (≈ 64.1 µM) in the test on Pseudomonas aeruginosa; 16 µg/mL (≈ 32 µM) with Escherichia coli; 16 µg/mL (≈ 32 µM) with Enterococcus faecalis; 2 µg/mL (≈ 4 µM) with Acinetobacter baumannii; 0.5 µg/mL (≈ 1 µM) with Staphylococcus aureus [1]; 32 µg/mL (≈ 64.1 µM) in the test on Enterococcus faecium. In the test with Streptococcus pneumoniae, the MIC worked out at 1 µg/mL (≈ 2 µM). The Ratio in the test with Staphylococcus aureus [2] is under 4.

With `Cc1cc2c(nc1CNC13CCC(C[C@]4(O)Cn5c(=O)ccc6ncc(F)c4c65)(CC1)OC3)NC(=O)CO2`, the MIC was 32 µg/mL (≈ 61.4 µM) in the test with Pseudomonas aeruginosa; 4 µg/mL (≈ 7.67 µM) with Haemophilus influenzae; 8 µg/mL (≈ 15.3 µM) in the test on Escherichia coli; 0.5 µg/mL (≈ 0.959 µM) with Moraxella catarrhalis; 8 µg/mL (≈ 15.3 µM) in the test on Enterococcus faecalis; 4 µg/mL (≈ 7.67 µM) with Acinetobacter baumannii. Besides, the MIC amounted to 1.5 µg/mL (≈ 2.88 µM) in the test with Staphylococcus aureus [1], 32 µg/mL (≈ 61.4 µM) with Enterococcus faecium and 4 µg/mL (≈ 7.67 µM) with Streptococcus pneumoniae.

Take `O=c1ccc2ncc(F)c3c2n1C[C@@]3(O)CC12CCC(NCc3ncc4c(n3)OCCO4)(CC1)CO2`: the MIC with Pseudomonas aeruginosa, in the test on Haemophilus influenzae, in the test with Escherichia coli, with Moraxella catarrhalis, in the test with Enterococcus faecalis and with Acinetobacter baumannii was 32 µg/mL (≈ 64.6 µM) each time. Also, the MIC in the test on Staphylococcus aureus [1] was determined as 8 µg/mL (≈ 16.1 µM); with Enterococcus faecium, 32 µg/mL (≈ 64.6 µM); in the test on Streptococcus pneumoniae, 4 µg/mL (≈ 8.07 µM).

In the case of `O=c1ccc2ncc(F)c3c2n1C[C@@]3(O)CC12CCC(NCc3cc4c(cc3Cl)OCCO4)(CC1)CO2`, the MIC in the test with Pseudomonas aeruginosa turned out to be 32 µg/mL (≈ 60.6 µM); with Haemophilus influenzae, 32 µg/mL (≈ 60.6 µM); with Escherichia coli, 32 µg/mL (≈ 60.6 µM); in the test with Moraxella catarrhalis it was 0.5 µg/mL (≈ 0.947 µM); in the test with Enterococcus faecalis it was 4 µg/mL (≈ 7.58 µM); in the test with Acinetobacter baumannii, 8 µg/mL (≈ 15.2 µM). Further, the MIC came to 0.25 µg/mL (≈ 0.474 µM) in the test on Staphylococcus aureus [1], 8 µg/mL (≈ 15.2 µM) in the test with Enterococcus faecium and 0.5 µg/mL (≈ 0.947 µM) in the test on Streptococcus pneumoniae.

In the case of `O=c1ccc2ncc(F)c3c2n1C[C@@]3(O)CC12CCC(NCOc3cc(F)ccc3F)(CC1)CO2`, the MIC in the test with Pseudomonas aeruginosa was found to be 64 µg/mL (≈ 131 µM); with Escherichia coli it was 32 µg/mL (≈ 65.6 µM); in the test with Enterococcus faecalis, 16 µg/mL (≈ 32.8 µM); in the test with Acinetobacter baumannii it was 4 µg/mL (≈ 8.21 µM); in the test on Staphylococcus aureus [1] it was 1 µg/mL (≈ 2.05 µM); in the test on Enterococcus faecium, 32 µg/mL (≈ 65.6 µM). The MIC in the test with Streptococcus pneumoniae was found to be 2 µg/mL (≈ 4.1 µM). Moreover, the Ratio in the test on Staphylococcus aureus [2] is listed as under 4.

For `Cn1c(=O)c(CNC23CCC(C[C@]4(O)Cn5c(=O)ccc6ncc(F)c4c65)(CC2)OC3)cc2ccccc21`, the MIC amounted to 64 µg/mL (≈ 124 µM) in the test with Pseudomonas aeruginosa; 64 µg/mL (≈ 124 µM) in the test on Escherichia coli; 64 µg/mL (≈ 124 µM) in the test with Enterococcus faecalis; 64 µg/mL (≈ 124 µM) in the test with Acinetobacter baumannii; 16 µg/mL (≈ 31 µM) in the test with Staphylococcus aureus [1]; 64 µg/mL (≈ 124 µM) in the test with Enterococcus faecium. In the test with Streptococcus pneumoniae, the MIC was found to be 8 µg/mL (≈ 15.5 µM). In addition, the Ratio with Staphylococcus aureus [2] is on record as under 4.

For `O=c1ccc2ncc(F)c3c2n1C[C@@]3(O)CC12CCC(NC/C(F)=C/c3cc(F)ccc3F)(CC1)CO2`, the MIC amounted to 16 µg/mL (≈ 31 µM) in the test with Pseudomonas aeruginosa; 16 µg/mL (≈ 31 µM) with Escherichia coli; 16 µg/mL (≈ 31 µM) with Enterococcus faecalis; 16 µg/mL (≈ 31 µM) with Acinetobacter baumannii; 4 µg/mL (≈ 7.76 µM) with Staphylococcus aureus [1]; 16 µg/mL (≈ 31 µM) in the test with Enterococcus faecium. In the test with Streptococcus pneumoniae, the MIC stood at 8 µg/mL (≈ 15.5 µM). Besides, in the test on Staphylococcus aureus [2], the Ratio was under 4.

With `O=c1ccc2ncc(F)c3c2n1C[C@@]3(O)CC12CCC(NC/C(F)=C\c3cc(F)ccc3F)(CC1)CO2`, the MIC in the test with Pseudomonas aeruginosa came to 16 µg/mL (≈ 31 µM); in the test with Escherichia coli, 16 µg/mL (≈ 31 µM); in the test with Enterococcus faecalis, 4 µg/mL (≈ 7.76 µM); in the test with Acinetobacter baumannii, 16 µg/mL (≈ 31 µM); with Staphylococcus aureus [1] it was 0.25 µg/mL (≈ 0.485 µM); in the test on Enterococcus faecium, 16 µg/mL (≈ 31 µM). In addition, the MIC with Streptococcus pneumoniae worked out at 1 µg/mL (≈ 1.94 µM). Besides, in the test with Staphylococcus aureus [2], the Ratio is under 4.
